Measured values published in publication PMC4619705 (PLoS ONE, 2015).
Entries after “also recorded” stand apart in the source; their conditions may differ.

Legend:
Format in all cases: cell-based
[1] = target: T1, β3 homomeric receptors (Homo sapiens, UniProt P28472); test: Two-electrode voltage clamp of β3 homomeric receptors expressed in Xenopus oocytes
T1 construct: expressed in transfected cells; host or cells: Xenopus laevis oocytes injected with β3 mRNA (5 ng/oocyte)
T1 sequence (P28472 26-473): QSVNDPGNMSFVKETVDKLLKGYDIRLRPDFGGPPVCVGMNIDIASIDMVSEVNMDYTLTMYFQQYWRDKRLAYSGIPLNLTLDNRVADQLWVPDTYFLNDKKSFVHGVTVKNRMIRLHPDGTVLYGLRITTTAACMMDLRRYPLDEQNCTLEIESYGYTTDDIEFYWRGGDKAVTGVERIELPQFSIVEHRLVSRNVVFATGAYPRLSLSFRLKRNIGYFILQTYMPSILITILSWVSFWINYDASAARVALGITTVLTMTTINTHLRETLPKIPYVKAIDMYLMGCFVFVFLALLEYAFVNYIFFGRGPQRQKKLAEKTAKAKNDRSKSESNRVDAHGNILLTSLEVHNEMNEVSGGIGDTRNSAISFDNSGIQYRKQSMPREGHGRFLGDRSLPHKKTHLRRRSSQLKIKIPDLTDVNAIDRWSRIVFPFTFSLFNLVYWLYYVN
Source text: (§1) Human complementary DNA (cDNA) of GABAAR α2 subunit (vector: pCMV6-XL5) was purchased from OriGene Technologies (Rockville, MD, USA), and the human β3 (vector: pGEMHE) and γ2L (vector: pCDM8) subunits were generous gifts from Dr. Bjarke Ebert (H. Lundbeck A/S, Valby, Denmark) and Dr. Paul Whiting (Merck, Sharp and Dohme Research Laboratories, Harlow, Essex, UK) respectively. […] Plasmid vectors with the cDNA incorporated were linearised using appropriate restriction endonucleases (α2: SmaI; β3: NheI; γ2L: NotI). Capped RNA transcripts were synthesised from linearised plasmids using the mMessage mMachine T7 transcript kit from Ambion (Austin, TX, USA). Purified messenger RNA (mRNA) was dissolved in nuclease-free water (Ambion, Austin, TX, USA), and its quality was assessed using 1% agarose gel electrophoresis. The concentration of each subunit mRNA was measured using Nanodrop ND-100 UV-Vis spectrophotometer (Thermo Fisher Scientific, North Ryde, NSW, Australia).
(§2) Various combinations of α2, β3 and γ2L subunit mRNAs were mixed to different ratios as stated in the text, and diluted accordingly to a concentration of 5 ng/μL (unless otherwise stated). […] Injected oocytes were stored in ND96 storage solution supplemented with 50 μg/mL gentamycin and tetracycline at 18°C. Two-electrode voltage clamp recordings were performed on oocytes 2–4 days post-injection at room temperature (20–25°C) using a GeneClamp 500B amplifier (ADInstruments, Sydney, NSW, Australia) or a Warner OC-725C Oocyte Clamp (Warner Instrument Corp, Hamden, CT, USA). All experiments were conducted at a holding potential of –60 mV, and data were acquired with a PowerLab 2/25, and LabChart (version 5.0.2) software (ADInstruments, Sydney, NSW, Australia). The recording microelectrodes (0.2–1.1 MΩ) were generated from capillary glass (Harvard Apparatus, Holliston, MA, USA) using a single-stage glass microelectrode puller (Narishige, Tokyo, Japan), and were filled with 3 M KCl solution. The perfusion system was built using a series of polycarbonate, high-density polyethylene two-way stopcocks (Qosina, Edgewood, NY, USA), connected through tubing to the recording chamber (100 μL), where the oocyte was continuously perfused with ND96 recording solution (96 mM NaCl, 2 mM KCl, 1 mM MgCl2, 1.8 mM CaCl2, 5 mM HEPES hemisodium; pH 7.4) at an approximate rate of 5 mL/min.
(§3) Perfusates containing these chemicals were made up fresh before each application. The concentration-response curves of agonists were obtained by exposing oocytes to increasing concentrations of agonists until the currents peaked. […] All experiments were performed using at least two different batches of oocytes.
Prism (version 5.04; GraphPad Software, La Jolla, CA, USA) was used for data analysis. […]

[2] = target: T2, α2β3γ2L GABAARs (Homo sapiens, UniProt P18507+P28472+P47869); test: Two-electrode voltage clamp of recombinant α2β3γ2L GABAARs expressed in Xenopus oocytes
T2 construct: expressed in transfected cells; host or cells: Xenopus laevis oocytes injected with capped mRNA, α2:β3:γ2L 3:1:3
T2 sequence (P18507 40-475, one chain of several): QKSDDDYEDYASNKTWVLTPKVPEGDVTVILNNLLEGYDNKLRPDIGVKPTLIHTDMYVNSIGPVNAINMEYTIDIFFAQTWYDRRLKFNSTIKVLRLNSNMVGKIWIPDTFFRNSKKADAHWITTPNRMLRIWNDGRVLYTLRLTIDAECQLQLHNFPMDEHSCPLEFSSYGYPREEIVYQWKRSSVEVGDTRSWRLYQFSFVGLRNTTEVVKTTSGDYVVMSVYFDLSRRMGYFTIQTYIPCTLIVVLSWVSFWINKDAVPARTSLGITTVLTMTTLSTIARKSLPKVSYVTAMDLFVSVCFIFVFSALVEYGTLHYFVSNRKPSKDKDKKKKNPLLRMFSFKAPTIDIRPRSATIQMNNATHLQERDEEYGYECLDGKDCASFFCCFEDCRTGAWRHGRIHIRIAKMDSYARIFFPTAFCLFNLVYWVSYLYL
Source text: as §1, §2, §3
(§4) Prism (version 5.04; GraphPad Software, La Jolla, CA, USA) was used for data analysis.
(§5) In all cases, we constrained the bottom to 0, and when fitting data to the biphasic model, the Hill slopes were constrained to 1. Statistical comparisons of results for different injection ratios of β3γ2L receptors were performed using ANOVA with Tukey’s post-hoc test. When comparing results from different injection ratios of β3γ2L receptors with α2β3γ2L receptors, the ANOVA Dunnett’s test was used. Pairwise comparisons were performed using Student’s t test. Statistical significance was attained at p < 0.05.

[3] = target: T3, α2γ2L receptors (Homo sapiens, UniProt P18507+P47869); test: Two-electrode voltage clamp of binary α2γ2L receptors expressed in Xenopus oocytes
T3 construct: expressed in transfected cells; host or cells: Xenopus laevis oocytes injected with α2 and γ2L mRNAs
T3 sequence (P18507 40-475, one chain of several): as above
Source text: as §1, §2, §3

[4] = target: T4, α2β3 GABAARs (Homo sapiens, UniProt P28472+P47869); test: Two-electrode voltage clamp of binary α2β3 GABAARs expressed in Xenopus oocytes
T4 construct: expressed in transfected cells; host or cells: Xenopus laevis oocytes injected with capped mRNA, α2:β3 20:1
T4 sequence (P47869 29-451): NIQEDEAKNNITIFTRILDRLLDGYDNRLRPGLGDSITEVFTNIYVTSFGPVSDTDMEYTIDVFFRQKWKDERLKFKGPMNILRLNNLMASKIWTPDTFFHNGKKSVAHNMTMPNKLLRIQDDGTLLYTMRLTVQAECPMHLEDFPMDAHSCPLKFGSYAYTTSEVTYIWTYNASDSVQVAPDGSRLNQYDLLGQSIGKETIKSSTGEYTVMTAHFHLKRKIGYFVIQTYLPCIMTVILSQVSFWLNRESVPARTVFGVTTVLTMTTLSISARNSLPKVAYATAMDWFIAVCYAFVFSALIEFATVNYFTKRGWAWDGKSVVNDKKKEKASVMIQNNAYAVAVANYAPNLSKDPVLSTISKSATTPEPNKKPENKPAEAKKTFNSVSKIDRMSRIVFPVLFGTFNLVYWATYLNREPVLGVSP
T4 sequence (P28472 26-473): T1 sequence (P28472 26-473)
Source text: as §1, §2, §3, §4, §5

Row | Expression level (current response elicited by GABA) ([1]; β3 alone, 5 ng mRNA/oocyte, 60 mM GABA, -60 mV) [nA] | Expression level (current response elicited by GABA) ([2]; α2β3γ2L 3:1:3, 3 mM GABA) [nA] | Expression level (current response elicited by GABA) ([3]; α2γ2L 1:1, 5 ng mRNA, 60 mM GABA, -60 mV) | Expression level (current response elicited by GABA) ([4]; α2β3 20:1, 5 ng mRNA, 3 mM GABA, -60 mV) [nA] | Structure (SMILES) | 2’MeO6MF activity ([1]; β3 alone, 3–300 μM) | Maximal inhibition of constitutive activity (normalised against oocyte holding current) ([1]; β3 homomers, 300 μM ligand) [%] | EC50 [2] [µM] | 2’MeO6MF activity ([2]; α2β3γ2L 3:1:3) | Direct activation, % of the 3 mM GABA response ([2]; α2β3γ2L 3:1:3, 300 μM ligand, mean ± SEM) [%] | Enhancement of GABA current (co-application) ([2]; α2β3γ2L 3:1:3, GABA EC3–10 + 100 or 300 μM ligand, data not shown) | 2’MeO6MF activity ([3]; α2γ2L 1:1, 100 μM) | 2’MeO6MF activity ([4]; α2β3 20:1, 100 μM) | Elicited current, % of the 3 mM GABA responses ([4]; α2β3 20:1, 100 μM ligand) [%] | Enhancement of GABA current (co-application) ([4]; α2β3 20:1, GABA EC3–10 + 100 or 300 μM ligand, data not shown)
1 |  |  |  |  | COc1ccccc1-c1cc(=O)c2cc(C)ccc2o1 [2’MeO6MF, 2’-methoxy-6-methylflavone] | Inverse agonism | 54 ± 3.0 | ~74 | Activation | 8.2 ± 3.6 | No enhancement | no function; also recorded: No current | lack of activity; also recorded: Insignificant activation | 1.7 ± 0.35 | No enhancement
2 | 290 ± 67 | 4300 ± 940 | no function; also recorded: No current | 1100 ± 220 | NCCCC(=O)O [GABA, γ-aminobutyric acid] |  |  |  |  |  |  |  |  |  | 
